{
  "source": "patent US5508293A",
  "about": "“Pyridinecarboxyimidamide compounds and the use thereof” (Kirin Beer Kabushiki Kaisha, priority 1992, dated 1996)",
  "key": {"[1]": {"tested_on": "coronary blood flow (circumflex branch of the left coronary artery), beagles", "experiment": "Coronary dilating effect on beagles (coronary blood flow, anesthetized dog)", "type": "in vivo", "conditions": "i.v., 10 Mg/Kg", "procedure": "Coronary dilating effects of 5-amino-N-cyano-N'-(2-nitroxyethyl)-3-pyridinecarboximidamide (Compound No. 18) of the present invention was assessed by comparison with those of N-cyano-N'-(2-nitroxyethyl)-3-pyridinecarboximidamide methanesulfonic acid (compound described in Japanese Patent Laid-Open Publication No. 163061/1991) which is thought to be a well-known compound most similar to the compound of the present invention.\nA dog (body weight, 8.3 kg) was anesthetized with 30 mg/kg of pentobarbital sodium intravenously. Respiration was maintained with room air through a cuffed endotracheal tube. The drug was administered through the femoral vein, and the coronary blood flow was measured by a probe attached to the circumflex branch of the left coronary artery."}, "[2]": {"tested_on": "spontaneously hypertensive rats (SHR), systolic blood pressure", "experiment": "Antihypertensive effects on conscious SHR (oral), Compound Nos. 18 and 19", "type": "in vivo, rat (male spontaneously hypertensive rats", "procedure": "Antihypertensive effects of- 5-amino-N-cyano-N'-(2-nitroxyethyl)-3-pyridinecarboximidamide (N-cyano-N'-(2-nitroxyethyl)-5-(3-aminopyridine)carboximidamide; Compound No. 18) and N-cyano-5-ethylamino-N'-(2-nitroxyethyl)-3-pyridinecarboximidamide (N-cyano-N'-(2-nitroxyethyl)-5-[3-(N-ethylaminopyridine)]carboximidamide; Compound No. 19) were assessed by comparison with those of the methanesulfonate salt of N-cyano-N'-(2-nitroxyethyl)-3-pyridinecarboximidamide (compound described in Japanese Patent Laid-Open Publication No. 163061/1991) as a reference compound which is thought to be a well-known compound most similar to the compound of the present invention.\nSystolic blood pressure (SBP) was measured with the tail cuff method.\nEach of the compound Nos. 18 and 19 was dissolved in an equivalent mixture of polyethylene glycol 200 and physiological saline, and the reference compound was dissolved in physiological saline. The compounds were administered orally with the aid of an oral probe. SBP was measured before administration and 1, 2, 4, 6, 8, 12 and 24 hours after administration of the compound. The results were expressed as the percentage change in SBP observed before administration."}, "rat aorta": {"tested_on": "rat aorta", "experiment": "Vasodilating effect in a rat aorta (relaxation of KCl-induced contraction)", "design": "species or system rat (male Wistar rat)", "conditions": "isolated rat thoracic aorta, 40 mM KCl; read-out: IC50 (concentration for inhibiting 50% of the tension induced by KCl)", "procedure": "Physiological effect of the compound of the present invention was tested by the method with use of an isolated rat aorta.\nThoracic aorta was isolated from a male Wistar rat (body weight, 250-350 g) exsanguinated to death for obtaining ring preparations having a width of 3 mm. The preparations were suspended into an organ bath filled with the Krebs-Ringer solution through which a mixed gas of 95% O2 and 5% CO2 had been aerated at 37° C. A resting tension of 1 g was applied to the preparation. After the tension in the preparation was stabilized, the solution in the organ bath was exchanged with an equimolar solution containing 40 mM KC1 to increase the tension of the preparation. When the tension induced by KCl become stable, the test compound was cumulatively added to the organ bath to relax the preparation. Relaxation response was expressed as percentage inhibition of KCl-induced contraction, and the IC50 value (concentration for inhibiting 50% of the tension induced by KCl) was calculated from the average concentration-response curve by the Probit method."}, "[3]": {"experiment": "Acute toxicity, oral, Compound No. 18", "conditions": "rat, in vivo, male SD rats (5 weeks old)", "procedure": "Acute toxicity of 5-amino-N-cyano-N'-(2-nitroxyethyl)-3-pyridinecarboximidamide (Compound No. 18) of the present invention on oral administration was examined with male SD rats (5 weeks old). As a result, LD50 was about 600 mg/kg."}},
  "note": "pIC50: −log10 of the molar value.",
  "data": [
    {"compound": "N#CNC(=NCCO[N+](=O)[O-])c1cncc(N)c1", "note": "[Compound No. 18, 5-amino-N-cyano-N'-(2-nitroxyethyl)-3-pyridinecarboximidamide]", "values": [
      {"measurement": "increase of coronary blood flow", "setting": "[1]", "result": "increase of coronary blood flow was observed"},
      {"measurement": "time for which the increase of coronary blood flow was retained", "setting": "[1]", "result": "≥ 15", "unit": "min"},
      {"measurement": "percent change of coronary blood flow as compared with the blood flow before administration", "setting": "[1]; 1 min after dosage", "result": 200.0, "unit": "%"},
      {"measurement": "percent change of coronary blood flow as compared with the blood flow before administration", "setting": "[1]; 3 min after dosage", "result": 123.8, "unit": "%"},
      {"measurement": "percent change of coronary blood flow as compared with the blood flow before administration", "setting": "[1]; 5 min after dosage", "result": 71.4, "unit": "%"},
      {"measurement": "percent change of coronary blood flow as compared with the blood flow before administration", "setting": "[1]; 10 min after dosage", "result": 19.0, "unit": "%"},
      {"measurement": "percent change of coronary blood flow as compared with the blood flow before administration", "setting": "[1]; 15 min after dosage", "result": 19.0, "unit": "%"},
      {"measurement": "percent change of coronary blood flow as compared with the blood flow before administration", "setting": "[1]; 20 min after dosage", "result": 0.0, "unit": "%"},
      {"measurement": "decrease in blood pressure / antihypertensive effect", "setting": "[2]; 3.0 mg/kg oral", "result": "decrease in blood pressure was observed"},
      {"measurement": "duration of the antihypertensive effect", "setting": "[2]; 3.0 mg/kg oral", "result": "≥ 12", "unit": "h"},
      {"measurement": "percent change in SBP observed before administration of the compound", "setting": "[2]; 3.0 mg/kg oral, 1 hour after administration", "result": -56.9, "unit": "%"},
      {"measurement": "percent change in SBP observed before administration of the compound", "setting": "[2]; 3.0 mg/kg oral, 2 hour after administration", "result": -49.2, "unit": "%"},
      {"measurement": "percent change in SBP observed before administration of the compound", "setting": "[2]; 3.0 mg/kg oral, 4 hour after administration", "result": -42.6, "unit": "%"},
      {"measurement": "percent change in SBP observed before administration of the compound", "setting": "[2]; 3.0 mg/kg oral, 6 hour after administration", "result": -17.9, "unit": "%"},
      {"measurement": "percent change in SBP observed before administration of the compound", "setting": "[2]; 3.0 mg/kg oral, 8 hour after administration", "result": -20.5, "unit": "%"},
      {"measurement": "percent change in SBP observed before administration of the compound", "setting": "[2]; 3.0 mg/kg oral, 12 hour after administration", "result": -22.2, "unit": "%"},
      {"measurement": "percent change in SBP observed before administration of the compound", "setting": "[2]; 3.0 mg/kg oral, 24 hour after administration", "result": -3.7, "unit": "%"},
      {"measurement": "antihypertensive activity or coronary vasodilating effect determined with the passage of time", "setting": "[2]; summary statement", "result": "remarkably potent and sustainable"},
      {"measurement": "pIC50", "setting": "rat aorta", "result": 4.66},
      {"measurement": "LD50", "setting": "[3]", "result": "~600", "unit": "mg/kg"}
    ]}
  ]
}
